# Ends that are not written are not given here.
# Assays:
# [1] = test system: Fov hyphae; test: Detection of reactive oxygen species (DHR123 oxidation) in response to NaD1; conditions: for effect of ROS scavenger on NaD1-induced DHR123 oxidation: in the presence of ascorbic acid or TEMPO
# [2] = test system: Fusarium oxysporum f. sp. vasinfectum (Fov); format: cell-based
# [3] = test system: Fusarium oxysporum f. sp. vasinfectum (Fov); test: Growth of Fusarium oxysporum in the presence of NaD1 and chemical fungicides in vitro; format: cell-based; conditions: Fov growth curves, combination with NaD1
# Protocol: The inhibitory effects of defensin (NaD1) and chemical fungicides on the growth of Fusarium oxysporum f. sp. vasinfectum (Fov) (Australian isolate VCG01111 isolated from cotton and provided by Farming Systems Institute, DPI, Queensland, Australia) were measured essentially as described by Broekaert, et al (1990). Spores were isolated from sporulating cultures growing in ½ strength potato dextrose broth (PDB). The Fov culture was grown in ½ PDB for 1-2 weeks at room temperature, before spores were separated from hyphal matter by filtration through sterile tissue paper. The concentration of spores in the filtrate was measured using a hemocytometer. NaD1 and the fungicides were prepared as described in Example 1. The conditions used for the fungal growth assay were the same as those described in Example 1.
# [4] = test system: Leptosphaeria maculans; test: Growth of Leptosphaeria maculans in the presence of NaD1 and chemical fungicides in vitro; format: cell-based; conditions: L. maculans, combination with NaD1
# Protocol: The defensin (NaD1) and the chemical fungicides prothioconazole (Sigma-Aldrich Cat #34232, 99.9% pure) and fluquinconazole (Nova Chem, Cat #C13805000, 98.5% pure) were assessed for their individual and combined inhibitory effects on the growth of Leptosphaeria maculans (Australian isolate IBCN18, Prof. B. Howlett) in vitro.
# Leptosphaeria maculans was grown in 10% (v/v) V8 medium for about 2 weeks. Spores were collected by filtration through sterile muslin and adjusted to a final concentration of 5×10^4 spores/mL. The conditions used for the fungal growth assay were the same as those described in Example 1 except 10% (v/v) V8 medium was used.
# [5] = test system: Verticillium dahliae; test: Growth of Verticillium dahliae in the presence of NaD1 and chemical fungicides in vitro; format: cell-based; conditions: V. dahliae growth curves, combination with NaD1
# Protocol: The inhibitory effects of defensin (NaD1) and chemical fungicides were assayed on growth of Verticillium dahliae (Australian isolate VCG-4B, Dr. Stephen Allen, Cotton Seed Distributors, Narrabri, NSW, Australia) in vitro.
# Spores of V. dahliae were isolated from sporulating cultures growing in Czapek-Dox broth (Difco) for 1-2 weeks at room temperature. Spores were separated from hyphal matter by filtration through sterile tissue paper and the concentration of spores in the filtrate was measured using a hemocytometer. NaD1 and the fungicides were prepared as described in Example 1. The conditions used for the fungal growth assay were the same as those described in Example 1 except that Czapek-Dox broth was used in place of PDB.
# [6] = test system: Fusarium graminearum; test: microbe, parasite or virus in culture; format: cell-based
# [7] = test system: Saccharomyces cerevisiae; test: Effect of NaD1 on growth of yeast strains
# Protocol: (§1) The effect of NaD1 on the growth of the yeast strains Candida albicans, Pichia pastoris and Saccharomyces cerevisiae (from Department of Microbiology, La Trobe University) was assayed in microtitre plates. Cells were grown in YPD for 48 h, then counted using a haemocytometer and diluted to a concentration of 5×10^4 cells/mL in fresh YPD. Cell suspension (100 μL) containing 0-10 μM NaD1 was added to the wells of a 96-well microtitre plate and incubated for 48 h at 30° C. Growth was determined by measuring the optical density at 595 nm using a microtitre plate reader. Each test was performed in quadruplicate.
# [8] = test system: Fov hyphae; test: Uptake of fluorescently labeled NaD1 (NaD1-bimane) by fluorescence microscopy; conditions: live hyphae
# Protocol: Hyphae grown for 18 h as described were treated with NaD1-bimane (2 μM) for between 10 min and 6 h. Hyphae were then visualized by fluorescence microscopy using an MWU filter (excitation wavelength of 330-385 nm).
# [9] = test system: Fov hyphae; test: Membrane permeabilization of Fov hyphae, SYTOX green uptake; format: cell-based, Fusarium oxysporum f. sp. vasinfectum; conditions: 0.1, 2 or 10 μM NaD1 or 10 μM NaD1R&A
# [10] = test system: Candida albicans; test: Effect of NaD1 on growth of yeast strains
# Protocol: as §1
compound,measurement,setting,value
CC1(C)CCCC(C)(C)N1[O] [TEMPO],effect of ROS scavenger on NaD1-induced DHR123 oxidation,[1],did not alter the level of fluorescence
"O=C1O[C@H]([C@@H](O)CO)C(O)=C1O [ascorbic acid, Ascorbic acid]",effect of ROS scavenger on NaD1-induced DHR123 oxidation,[1],did not alter the level of fluorescence
same,effect of ROS scavenger on growth inhibition of Fov by NaD1,[2],nor did the presence of 10 mM ascorbic acid affect growth inhibition of Fov by NaD1
CO/C=C(/C(=O)OC)c1ccccc1Oc1cc(Oc2ccccc2C#N)ncn1 [azoxystrobin],synergism with NaD1,[3],synergistic effect
CO/N=C(/C1=NOCCO1)c1ccccc1Oc1ncnc(Oc2ccccc2Cl)c1F [fluoxastrobin],synergism with NaD1,[3],synergy
O=c1c2cc(F)ccc2nc(-n2cncn2)n1-c1ccc(Cl)cc1Cl [fluquinconazole],enhancement of fungicide activity by defensin,[4],synergistic
C[Si](Cn1cncn1)(c1ccc(F)cc1)c1ccc(F)cc1 [flusilazole],synergism with NaD1,[5],Synergism
CO/C=C(/C(=O)OC)c1ccccc1COc1cccc(C(F)(F)F)n1 [picoxystrobin],synergism with NaD1,[3],synergy
CCCC1COC(Cn2cncn2)(c2ccc(Cl)cc2Cl)O1 (stereo not drawn) [propiconazole],toxicity with Fusarium graminearum,[6]; 0.24 μM NaD1 combined with 1 mg/L propiconazole,significantly enhanced
same,synergism with NaD1,"[6]; F. graminearum growth curves, combination with NaD1",Synergism
same,inhibition at 0.06 µg/mL,"[6]; Fusarium graminearum, read-out: inhibition of fungal growth",~13%
same,inhibition of fungal growth,[6]; combination of 0.5 μM defensin and 0.06 mg/L propiconazole,about 78%
same,synergism with NaD1,[5],Synergism
same,synergism with NaD1,[3],Synergism
OC(Cc1ccccc1Cl)(Cn1nc[nH]c1=S)C1(Cl)CC1 (stereo not drawn) [prothioconazole],enhancement of fungicide activity by defensin,[4],synergistic
CC(C)(C)C(O)(CCc1ccc(Cl)cc1)Cn1cncn1 (stereo not drawn) [tebuconazole],synergism with NaD1,[5],Synergism
"DmAMP1: plant defensin from dahlia (ELCEKASKTWSGNCGNTGHCDNQCKSWEGAAHGACHVRNGKHMCFCYFNC; UniProt P0C8Y4 1-50, looked up) [reference compound]",effect on growth,[7],inhibited the growth
"NaD1 labeled with FITC: NaD1 labeled with FITC via reactive amine groups (RECKTESNTFPGICITKPPCRKACISEKFTDGHCSKILRRCLCTKPC; cysteine pairing not given here; also: FITC label via reactive amine groups; UniProt Q8GTM0 26-72, looked up)",antifungal activity of labeled NaD1,[2],not biologically active
"NaD1-bimane: NaD1 labeled with the fluorophore bimane amine on carboxyl residues (RECKTESNTFPGICITKPPCRKACISEKFTDGHCSKILRRCLCTKPC; cysteine pairing not given here; also: bimane amine fluorophore on carboxyl residues; UniProt Q8GTM0 26-72, looked up)",antifungal activity of labeled NaD1,[2],retained full antifungal activity
same,time at which internalization was observed,[8],20 to 30 min
"NaD1R&A: NaD1 with cysteine residues reduced and alkylated (RECKTESNTFPGICITKPPCRKACISEKFTDGHCSKILRRCLCTKPC; also: cysteines reduced and alkylated; UniProt Q8GTM0 26-72, looked up)",ROS production (DHR123 oxidation fluorescence),"[1]; NaD1 0.1, 2 and 10 μM or 10 μM NaD1R&A",No fluorescence was observed
same,activity in growth inhibitory assays,[2],completely inactive
same,permeabilization of hyphae (SYTOX green),[9],Permeabilization was not observed
"RsAFP2: plant defensin from radish (QKLCQRPSGTWSGVCGNNNACKNQCIRLEKARHGSCNYVFPAHKCICYFPC; UniProt P30230 30-80, looked up) [reference compound]",effect on growth,[10],inhibited the growth

# From US9848603B2, “Methods for protecting plants with antifungal compositions” (priority 2008, dated 2017)
